Values of other authors, collected in patent US20250352504A1, “LEVOCARNITINE AND TRIMETAZIDINE BILAYER TABLET AND PREPARATION METHOD THEREOF” (Changzhou High-tech Industrial Development Zone 3D …, priority 2024, published 2025).
Structures can show the parent of a compound that is named as a salt. Where two headings read alike, the source gives them in different places.

How the values were obtained:
[1] = crystalline powder

SMILES	solubility (0.1 mol/L hydrochloric acid solution)	solubility (0.1 mol/L sodium hydroxide solution)	solubility (acetic acid)	solubility (ethanol)	solubility (ether)	solubility (methanol)	solubility (water)	hygroscopicity [1]	solubility (acetone)	solubility (formic acid)
COc1ccc(CN2CCNCC2)c(OC)c1OC [Trimetazidine dihydrochloride, 1-(2,3,4-Trimethoxybenzyl) piperazine dihydrochloride]	highly soluble	highly soluble	easily soluble	slightly soluble	almost insoluble	soluble	highly soluble			
C[N+](C)(C)C[C@H](O)CC(=O)[O-] [Levocarnitine, (3R)-3-hydroxy-4-(trimethylammonio) butanoate]				readily soluble	almost insoluble		readily soluble	strong hygroscopicity	almost insoluble	easily soluble
